Data on 21 compounds can be found in US20080114005A1, “Fibrate Compounds Having Ppar Agonist Activity” (Dr. Reddy's Laboratories Limited, priority 2004, published 2008).

As a reminder, the melting point is the temperature, or range, at which the solid turns liquid.

Tested on in the first series: not given
Test: not given
Conditions: not given
Regarding `CCCc1nn(C)c2c(=O)n(CCOc3cccc(OC(C)(C)C(=O)OCC)c3)c(C)nc12` [Example 88, 2-{3-[2-(1,5-Dimethyl-7-oxo-3-propyl-1,7-dihydro-pyrazolo[4,3-d]pyrimidin-6-yl)-ethoxy]-phenoxy}-2-methyl-propionic acid ethyl ester], the melting point was in the range of 86 to 88 °C.

Turning to `CCOC(=O)C(C)(C)Sc1ccc(OCCCn2c(C)nc3ccccc3c2=O)cc1` [Example 25, 2-Methyl-2-{4-[3-(2-methyl-4-oxo-4H-quinazolin-3-yl)-propoxy]-phenylsulfanyl}-propionic acid ethyl ester], the melting point lay within 162 to 164 °C.

Turning to `CCCc1nn(CC)c2c(=O)n(CCOc3ccc(SC(C)(C)C(=O)O)cc3)c(C)nc12` [Example 52, 2-{4-[2-(1-Ethyl-5-methyl-7-oxo-3-propyl-1,7-dihydro-pyrazolo[4,3-d]pyrimidin-6-yl)-ethoxy]-phenylsulfanyl}-2-methyl-propionic acid], the melting point fell in the range of 178 to 180 °C.

With `CCCc1nn(CC)c2c(=O)n(CCOc3ccc(SC(C)(C)C(=O)O)cc3)c(CC)nc12` [Example 50, 2-{4-[2-(1,5-Diethyl-7-oxo-3-propyl-1,7-dihydro-pyrazolo[4,3-d]pyrimidin-6-yl)-ethoxy]-phenylsulfanyl}-2-methyl-propionic acid], the melting point is 123 to 125 °C.

For `CCCc1nn(C)c2c(=O)n(CCNc3ccc(SC(C)(C)C(=O)OCC)cc3)c(CC)nc12` [Example 41, 2-{4-[2-(5-Ethyl-1-methyl-7-oxo-3-propyl-1,7-dihydro-pyrazolo[4,3-d]pyrimidin-6-yl)-ethylamino]-phenylsulfanyl}-2-methyl-propionic acid ethyl ester], the melting point was in the range of 105 to 107 °C.

`CCc1nc2ccccc2c(=O)n1CCNc1ccc(SC(C)(C)C(=O)O)cc1` [Example 4, 2-{4-[2-(2-Ethyl-4-oxo-4H-quinazolin-3-yl)-ethylamino]-phenylsulfanyl}-2-methyl-propionic acid]: the melting point fell in the range of 124 to 126 °C.

For `CCCc1nn(C)c2c(=O)n(CCOc3ccc(OC4(C(=O)O)CCC4)cc3)c(C)nc12` [Example 91, 1-{4-[2-(1,5-Dimethyl-7-oxo-3-propyl-1,7-dihydro-pyrazolo[4,3-d]pyrimidin-6-yl)-ethoxy]-phenoxy}-cyclobutanecarboxylic acid], the melting point lay within 188 to 190 °C.

On to `CCCc1nn(C)c2c(=O)n(CCCNc3ccc(OC(C)(C)C(=O)O)cc3)c(C)nc12` [Example 68, 2-{4-[3-(1,5-Dimethyl-7-oxo-3-propyl-1,7-dihydro-pyrazolo[4,3-d]pyrimidin-6-yl)-propylamino]-phenoxy}-2-methyl-propionic acid], for which the melting point lay in the range of 104 to 106 °C.

`CCCc1nn(C)c2c(=O)n(CCCNc3ccc(OC(C)(C)C(=O)O)cc3)c(CC)nc12` [Example 72, 2-{4-[3-(5-Ethyl-1-methyl-7-oxo-3-propyl-1,7-dihydro-pyrazolo[4,3-d]pyrimidin-6-yl)-propylamino]-phenoxy}-2-methyl-propionic acid] gave a melting point of 124 to 126 °C.

The compound `CCOC(=O)C(C)(CC)Sc1ccc(OCCCn2c(C)nc3ccccc3c2=O)cc1` (stereo not shown) [Example 55, 2-Methyl-2-{4-[3-(2-methyl-4-oxo-4H-quinazolin-3-yl)-propoxy]-phenylsulfanyl}-butyric acid ethyl ester] yielded a melting point of 164 to 166 °C.

`CCCc1nn(C)c2c(=O)n(CCOc3ccc(SC(C)(C)C(=O)OCC)cc3)c(C)nc12` [Example 31, 2-{4-[2-(1,5-Dimethyl-7-oxo-3-propyl-1,7-dihydro-pyrazolo[4,3-d]pyrimidin-6-yl)-ethoxy]-phenylsulfanyl}-2-methyl-propionic acid ethyl ester] came in with a melting point of 106 to 108 °C.

Regarding `CCCc1nn(C)c2c(=O)n(CCCOc3ccc(SC(C)(C)C(=O)O)cc3)c(CC)nc12` [Example 40, 2-{4-[3-(5-Ethyl-1-methyl-7-oxo-3-propyl-1,7-dihydro-pyrazolo[4,3-d]pyrimidin-6-yl)-propoxy]-phenylsulfanyl}-2-methyl-propionic acid], the melting point fell in the range of 115 to 117 °C.

For the compound `CCCc1nn(C)c2c(=O)n(CCCOc3ccc(OC(C)(C)C(=O)O)cc3)cnc12` [Example 64, 2-Methyl-2-{4-[3-(1-methyl-7-oxo-3-propyl-1,7-dihydro-pyrazolo[4,3-d]pyrimidin-6-yl)-propoxy]-phenoxy}-propionic acid], the melting point is 136 to 138 °C.

`CCCc1nn(C)c2c(=O)n(CCCOc3ccc(OC(C)(C)C(=O)O)cc3)c(CC)nc12` [Example 74, 2-{4-[3-(5-Ethyl-1-methyl-7-oxo-3-propyl-1,7-dihydro-pyrazolo[4,3-d]pyrimidin-6-yl)-propoxy]-phenoxy}-2-methyl-propionic acid] gave a melting point of 124 to 126 °C.

`CCCc1nn(C)c2c(=O)n(CCCOc3ccc(SC(C)(C)C(=O)OCC)cc3)c(CC)nc12` [Example 39, 2-{4-[3-(5-Ethyl-1-methyl-7-oxo-3-propyl-1,7-dihydro-pyrazolo[4,3-d]pyrimidin-6-yl)-propoxy]-phenylsulfanyl}-2-methyl-propionic acid ethyl ester] yielded a melting point of 52 to 54 °C.

In turn, `CCc1nc2ccccc2c(=O)n1CCCOc1ccc(SC(C)(C)C(=O)O)cc1` [Example 24, 2-{4-[3-(2-Ethyl-4-oxo-4H-quinazolin-3-yl)-propoxy]-phenylsulfanyl}-2-methyl-propionic acid] displayed a melting point of 156 to 158 °C.

`CCCc1nn(C)c2c(=O)n(CCOc3ccc(OC(C)(C)C(=O)O)cc3)cnc12` [Example 58, 2-Methyl-2-{4-[2-(1-methyl-7-oxo-3-propyl-1,7-dihydro-pyrazolo[4,3-d]pyrimidin-6-yl)-ethoxy]-phenoxy}-propionic acid]: the melting point was in the range of 144 to 146 °C.

`CCc1nc2ccccc2c(=O)n1CCOc1ccc(SC(C)(C)C(=O)O)cc1` [Example 34, 2-{4-[2-(2-Ethyl-4-oxo-4H-quinazolin-3-yl)-ethoxy]-phenylsulfanyl}-2-methyl-propionic acid] had a melting point of 148 to 150 °C.

The compound `CCc1nc2ccccc2c(=O)n1CCCCNc1ccc(SC(C)(C)C(=O)O)cc1` [Example 16, 2-{4-[4-(2-Ethyl-4-oxo-4H-quinazolin-3-yl)-butylamino]-phenylsulfanyl}-2-methyl-propionic acid] had a melting point of 58 to 62 °C.

In the case of `CCCc1nn(CC)c2c(=O)n(CCCOc3ccc(SC(C)(C)C(=O)O)cc3)c(C)nc12` [Example 28, 2-{4-[3-(1-Ethyl-5-methyl-7-oxo-3-propyl-1,7-dihydro-pyrazolo[4,3-d]pyrimidin-6-yl)-propoxy]-phenylsulfanyl}-2-methyl-propionic acid], the melting point lay within 118 to 120 °C.

In turn, `CCCc1nn(CC)c2c(=O)n(CCOc3cccc(OC(C)(C)C(=O)O)c3)c(C)nc12` [Example 93, 2-{3-[2-(1-Ethyl-5-methyl-7-oxo-3-propyl-1,7-dihydro-pyrazolo[4,3-d]pyrimidin-6-yl)-ethoxy]-phenoxy}-2-methyl-propionic acid] had a melting point of 147 to 149 °C.

A further series addresses T1, human PPARα (Homo sapiens, UniProt Q07869).
T1 construct: expressed in transfected cells; host or cells: HEK-293
T1 sequence (Q07869 239-466 limits assumed): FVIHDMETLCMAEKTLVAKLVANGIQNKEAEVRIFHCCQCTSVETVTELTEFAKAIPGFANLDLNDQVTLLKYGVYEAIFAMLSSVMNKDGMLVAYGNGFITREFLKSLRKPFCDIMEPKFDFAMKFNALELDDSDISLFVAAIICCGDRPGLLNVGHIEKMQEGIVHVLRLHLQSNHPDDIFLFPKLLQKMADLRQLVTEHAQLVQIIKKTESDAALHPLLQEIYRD
Kind of series: in vitro PPARα transactivation, GAL4-LBD luciferase reporter in HEK-293 cells. Type of series: cell-based. To be noted: test compound at 1 μM; luciferase fold activation relative to untreated cells. The text has this:
A number of derivatives of the invention have shown PPAR agonist activity. The following procedure was used for in vitro determination of PPARα, γ and δ transactivation.
(§1) The ligand binding domain of human PPARγ1, PPARα or PPARδ was fused to the C-terminal end of DNA binding domain of yeast transcription factor GAL4 in eukaryotic expression vector. HEK-293 cells were transfected with either of these plasmids, reporter plasmid pGL2 (Gal4×5)˜SV40˜Luc and pAdVantage using superfect (Qiagen, Germany) for 3 hours. pAdVantage vector was used to enhance the luciferase expression. 48 hours after transfection, the cells were harvested and incubated overnight with or without test compounds at different concentrations. The cells were lysed and luciferase activity was measured using the LucLite kit (Packard USA). Luciferase activity was measured as fold activation relative to untreated cells.
In general terms: A reporter such as luciferase makes a cellular process visible.
On to `CCCc1nn(C)c2c(=O)n(CCOc3cccc(OC(C)(C)C(=O)OCC)c3)c(C)nc12` [Example 88, 2-{3-[2-(1,5-Dimethyl-7-oxo-3-propyl-1,7-dihydro-pyrazolo[4,3-d]pyrimidin-6-yl)-ethoxy]-phenoxy}-2-methyl-propionic acid ethyl ester], for which the PPARα activation worked out at 1.6.

Staying with this series, now noted: test compound at 10 μM; luciferase fold activation relative to untreated cells.
Regarding `CCCc1nn(C)c2c(=O)n(CCOc3cccc(OC(C)(C)C(=O)OCC)c3)c(C)nc12` [Example 88, 2-{3-[2-(1,5-Dimethyl-7-oxo-3-propyl-1,7-dihydro-pyrazolo[4,3-d]pyrimidin-6-yl)-ethoxy]-phenoxy}-2-methyl-propionic acid ethyl ester], the PPARα activation worked out at 3.6.

The target in a further series is T2, human PPARδ (Homo sapiens, UniProt Q03181).
T2 construct: expressed in transfected cells; host or cells: HEK-293
T2 sequence (Q03181 211-439 limits assumed): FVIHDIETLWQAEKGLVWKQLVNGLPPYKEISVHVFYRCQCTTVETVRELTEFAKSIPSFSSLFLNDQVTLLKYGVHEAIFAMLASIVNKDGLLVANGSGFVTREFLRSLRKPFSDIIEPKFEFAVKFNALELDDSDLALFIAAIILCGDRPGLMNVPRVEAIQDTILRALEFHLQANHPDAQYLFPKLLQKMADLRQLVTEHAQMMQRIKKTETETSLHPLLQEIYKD
Description: in vitro PPARδ transactivation, GAL4-LBD luciferase reporter in HEK-293 cells. To be noted: test compound at 1 μM; luciferase fold activation relative to untreated cells. Type of series: cell-based. On the procedure:
The following procedure was used for in vitro determination of PPARα, γ and δ transactivation.
as §1
`CCCc1nn(C)c2c(=O)n(CCOc3cccc(OC(C)(C)C(=O)OCC)c3)c(C)nc12` [Example 88, 2-{3-[2-(1,5-Dimethyl-7-oxo-3-propyl-1,7-dihydro-pyrazolo[4,3-d]pyrimidin-6-yl)-ethoxy]-phenoxy}-2-methyl-propionic acid ethyl ester]: the PPARδ activation came out at 0.3.

Still in this series, the particulars now being: test compound at 10 μM; luciferase fold activation relative to untreated cells.
In turn, `CCCc1nn(C)c2c(=O)n(CCOc3cccc(OC(C)(C)C(=O)OCC)c3)c(C)nc12` [Example 88, 2-{3-[2-(1,5-Dimethyl-7-oxo-3-propyl-1,7-dihydro-pyrazolo[4,3-d]pyrimidin-6-yl)-ethoxy]-phenoxy}-2-methyl-propionic acid ethyl ester] registered a PPARδ activation of 0.6.
